{
  "source": "patent US20230045421A1",
  "about": "(priority 2018, published 2023)",
  "tested_on": "HBV rcDNA",
  "experiment": "HepDE19 assay with bDNA quantitation of HBV rcDNA",
  "format": "cell-based, hepatitis B virus",
  "conditions": "inhibition of formation of relaxed circular DNA (rcDNA), bDNA quantitation, read-out: DE-19bDNA EC50",
  "how_it_was_run": "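Compounds, top concentration 25 μM in 8-point duplicate series, were applied to Tet-free HepDE19 cultures for 7 days. Branched-DNA quantitation of HBV rcDNA against untreated wells gave EC50 and EC90 by 4-parameter fit. Viability (CC50) came from ATP luminescence on parallel plates incubated 4 days.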",
  "key": {"[1]": {"conditions": "Hepatitis B virus, HepDE19, HepDE19 assay"}},
  "note": "Read-outs that look alike come from different tables or passages of the source.",
  "data": [
    {"smiles": "CC(c1c[nH]c(=O)c2ccccc12)N(Cc1ccccn1)C(=O)Nc1ccc(F)c(Cl)c1", "note": "(single isomer, unassigned) [Compound 305, 3-(3-Chloro-4-fluorophenyl)-1-(1-(1-oxo-1,2-dihydroisoquinolin-4-yl)ethyl)-1-(pyridin-2-ylmethyl) urea]", "values": [
      {"measurement": "EC50", "setting": "HepDE19 assay", "value": 0.59, "unit": "µM"}
    ]},
    {"smiles": "CC(c1c[nH]c(=O)c2ccccc12)N(Cc1cccnc1)C(=O)Nc1ccc(F)c(Cl)c1", "note": "(single isomer, unassigned) [Compound 306, 3-(3-Chloro-4-fluorophenyl)-1-(1-(1-oxo-1,2-dihydroisoquinolin-4-yl)ethyl)-1-(pyridin-3-ylmethyl) urea]", "values": [
      {"measurement": "EC50", "setting": "HepDE19 assay", "value": 1, "unit": "µM"}
    ]},
    {"smiles": "CC(c1c[nH]c(=O)c2ccccc12)N(Cc1cccnc1)C(=O)Nc1ccc(F)c(Cl)c1", "note": "(single isomer, unassigned) [Compound 307, 3-(3-Chloro-4-fluorophenyl)-1-(1-(1-oxo-1,2-dihydroisoquinolin-4-yl)ethyl)-1-(pyridin-3-ylmethyl) urea]", "values": [
      {"measurement": "EC50", "setting": "HepDE19 assay", "value": 20, "unit": "µM"}
    ]},
    {"smiles": "CC(c1c[nH]c(=O)c2ccccc12)N(Cc1ccncc1)C(=O)Nc1ccc(F)c(Cl)c1", "note": "(single isomer, unassigned) [Compound 308, 3-(3-Chloro-4-fluorophenyl)-1-(1-(1-oxo-1,2-dihydroisoquinolin-4-yl)ethyl)-1-(pyridin-4-ylmethyl) urea]", "values": [
      {"measurement": "EC50", "setting": "HepDE19 assay", "value": 0.13, "unit": "µM"}
    ]},
    {"smiles": "CC(c1c[nH]c(=O)c2ccccc12)N(Cc1ccncc1)C(=O)Nc1ccc(F)c(Cl)c1", "note": "(single isomer, unassigned) [Compound 309, 3-(3-Chloro-4-fluorophenyl)-1-(1-(1-oxo-1,2-dihydroisoquinolin-4-yl)ethyl)-1-(pyridin-4-ylmethyl) urea]", "values": [
      {"measurement": "EC50", "setting": "HepDE19 assay", "value": 11, "unit": "µM"}
    ]},
    {"smiles": "CC(c1c[nH]c(=O)c2ccccc12)N(Cc1nccs1)C(=O)Nc1ccc(F)c(Cl)c1", "note": "(single isomer, unassigned) [Compound 310, 3-(3-Chloro-4-fluorophenyl)-1-(1-(1-oxo-1,2-dihydroisoquinolin-4-yl)ethyl)-1-(thiazol-2-ylmethyl)urea]", "values": [
      {"measurement": "EC50", "setting": "HepDE19 assay", "value": 5.5, "unit": "µM"}
    ]},
    {"smiles": "CC(c1c[nH]c(=O)c2ccccc12)N(Cc1nccs1)C(=O)Nc1ccc(F)c(Cl)c1", "note": "(single isomer, unassigned) [Compound 311, 3-(3-Chloro-4-fluorophenyl)-1-(1-(1-oxo-1,2-dihydroisoquinolin-4-yl)ethyl)-1-(thiazol-2-ylmethyl)urea]", "values": [
      {"measurement": "EC50", "setting": "HepDE19 assay", "value": 0.066, "unit": "µM"}
    ]},
    {"smiles": "CC(c1c[nH]c(=O)c2ccccc12)N(Cc1cscn1)C(=O)Nc1ccc(F)c(Cl)c1", "note": "(single isomer, unassigned) [Compound 312, 3-(3-Chloro-4-fluorophenyl)-1-(1-(1-oxo-1,2-dihydroisoquinolin-4-yl)ethyl)-1-(thiazol-4-ylmethyl)urea]", "values": [
      {"measurement": "EC50", "setting": "HepDE19 assay", "value": 4.6, "unit": "µM"}
    ]},
    {"smiles": "CC(c1c[nH]c(=O)c2ccccc12)N(Cc1cscn1)C(=O)Nc1ccc(F)c(Cl)c1", "note": "(single isomer, unassigned) [Compound 313, 3-(3-Chloro-4-fluorophenyl)-1-(1-(1-oxo-1,2-dihydroisoquinolin-4-yl)ethyl)-1-(thiazol-4-ylmethyl)urea]", "values": [
      {"measurement": "EC50", "setting": "HepDE19 assay", "value": 0.4, "unit": "µM"}
    ]},
    {"smiles": "CC(c1cnc(S(C)(=O)=O)c2ccccc12)N(C)C(=O)Nc1ccc(F)c(Cl)c1", "note": "(single isomer, unassigned) [Compound 314, 3-(3-Chloro-4-fluorophenyl)-1-methyl-1-(1-(1-(methylsulfonyl)isoquinolin-4-yl)ethyl)urea]", "values": [
      {"measurement": "EC50", "setting": "HepDE19 assay", "value": 8.3, "unit": "µM"}
    ]},
    {"smiles": "CC(c1cnc(S(C)(=O)=O)c2ccccc12)N(C)C(=O)Nc1ccc(F)c(Cl)c1", "note": "(single isomer, unassigned) [Compound 315, 3-(3-Chloro-4-fluorophenyl)-1-methyl-1-(1-(1-(methylsulfonyl)isoquinolin-4-yl)ethyl)urea]", "values": [
      {"measurement": "EC50", "setting": "HepDE19 assay", "value": 0.8, "unit": "µM"}
    ]},
    {"smiles": "CNC(=O)c1ncc(C(C)N(C)C(=O)Nc2ccc(F)c(Cl)c2)c2ccccc12", "note": "(single isomer, unassigned) [Compound 316, 4-(1-(3-(3-Chloro-4-fluorophenyl)-1-methylureido)ethyl)-N-methylisoquinoline-1-carboxamide]", "values": [
      {"measurement": "EC50", "setting": "HepDE19 assay", "value": 7.5, "unit": "µM"}
    ]},
    {"smiles": "CNC(=O)c1ncc(C(C)N(C)C(=O)Nc2ccc(F)c(Cl)c2)c2ccccc12", "note": "(single isomer, unassigned) [Compound 317, 4-(1-(3-(3-Chloro-4-fluorophenyl)-1-methylureido)ethyl)-N-methylisoquinoline-1-carboxamide]", "values": [
      {"measurement": "EC50", "setting": "HepDE19 assay", "value": 0.077, "unit": "µM"}
    ]},
    {"smiles": "CC(c1cnc(C(=O)N(C)C)c2ccccc12)N(C)C(=O)Nc1ccc(F)c(Cl)c1", "note": "(single isomer, unassigned) [Compound 318, 4-(1-(3-(3-Chloro-4-fluorophenyl)-1-methylureido)ethyl)-N,N-dimethylisoquinoline-1-carboxamide]", "values": [
      {"measurement": "EC50", "setting": "HepDE19 assay", "value": 24, "unit": "µM"}
    ]},
    {"smiles": "CC(c1cnc(C(=O)N(C)C)c2ccccc12)N(C)C(=O)Nc1ccc(F)c(Cl)c1", "note": "(single isomer, unassigned) [Compound 319, 4-(1-(3-(3-Chloro-4-fluorophenyl)-1-methylureido)ethyl)-N,N-dimethylisoquinoline-1-carboxamide]", "values": [
      {"measurement": "EC50", "setting": "HepDE19 assay", "value": 0.38, "unit": "µM"}
    ]},
    {"smiles": "CC(c1c[nH]c(=O)c2ccccc12)N(Cc1cncnc1)C(=O)Nc1ccc(F)c(Cl)c1", "note": "(single isomer, unassigned) [Compound 320, 3-(3-Chloro-4-fluorophenyl)-1-(1-(1-oxo-1,2-dihydroisoquinolin-4-yl)ethyl)-1-(pyrimidin-5-ylmethyl)urea]", "values": [
      {"measurement": "EC50", "setting": "[1]", "value": 13, "unit": "µM"}
    ]},
    {"smiles": "CC(c1c[nH]c(=O)c2ccccc12)N(Cc1ccncn1)C(=O)Nc1ccc(F)c(Cl)c1", "note": "(single isomer, unassigned) [Compound 321, 3-(3-Chloro-4-fluorophenyl)-1-(1-(1-oxo-1,2-dihydroisoquinolin-4-yl)ethyl)-1-(pyrimidin-4-ylmethyl)urea]", "values": [
      {"measurement": "EC50", "setting": "HepDE19 assay", "value": 19, "unit": "µM"}
    ]},
    {"smiles": "CC(c1c[nH]c(=O)c2ccccc12)N(Cc1ccncn1)C(=O)Nc1ccc(F)c(Cl)c1", "note": "(single isomer, unassigned) [Compound 322, 3-(3-Chloro-4-fluorophenyl)-1-(1-(1-oxo-1,2-dihydroisoquinolin-4-yl)ethyl)-1-(pyrimidin-4-ylmethyl)urea]", "values": [
      {"measurement": "EC50", "setting": "HepDE19 assay", "value": 0.35, "unit": "µM"}
    ]},
    {"smiles": "CC(c1c[nH]c(=O)c2ccccc12)N(Cc1cncs1)C(=O)Nc1ccc(F)c(Cl)c1", "note": "(single isomer, unassigned) [Compound 323, 3-(3-Chloro-4-fluorophenyl)-1-(1-(1-oxo-1,2-dihydroisoquinolin-4-yl)ethyl)-1-(thiazol-5-ylmethyl)urea]", "values": [
      {"measurement": "EC50", "setting": "HepDE19 assay", "value": 0.085, "unit": "µM"}
    ]},
    {"smiles": "CC(c1c[nH]c(=O)c2ccccc12)N(Cc1cncs1)C(=O)Nc1ccc(F)c(Cl)c1", "note": "(single isomer, unassigned) [Compound 324, 3-(3-Chloro-4-fluorophenyl)-1-(1-(1-oxo-1,2-dihydroisoquinolin-4-yl)ethyl)-1-(thiazol-5-ylmethyl)urea]", "values": [
      {"measurement": "EC50", "setting": "HepDE19 assay", "value": 4.5, "unit": "µM"}
    ]},
    {"smiles": "CC(c1cnc(C(=O)O)c2ccccc12)N(C)C(=O)Nc1ccc(F)c(Cl)c1", "note": "(single isomer, unassigned) [Compound 325, 4-(1-(3-(3-Chloro-4-fluorophenyl)-1-methylureido)ethyl)isoquinoline-1-carboxylic acid]", "values": [
      {"measurement": "EC50", "setting": "[1]", "value": 4.2, "unit": "µM"}
    ]},
    {"smiles": "CC(c1cnc(CO)c2ccccc12)N(C)C(=O)Nc1ccc(F)c(Cl)c1", "note": "(single isomer, unassigned) [Compound 326, 3-(3-Chloro-4-fluorophenyl)-1-(1-(1-(hydroxymethyl)isoquinolin-4-yl)ethyl)-1-methylurea]", "values": [
      {"measurement": "EC50", "setting": "HepDE19 assay", "value": 16, "unit": "µM"}
    ]},
    {"smiles": "CC(c1cnc(CO)c2ccccc12)N(C)C(=O)Nc1ccc(F)c(Cl)c1", "note": "(single isomer, unassigned) [Compound 327, 3-(3-Chloro-4-fluorophenyl)-1-(1-(1-(hydroxymethyl)isoquinolin-4-yl)ethyl)-1-methylurea]", "values": [
      {"measurement": "EC50", "setting": "HepDE19 assay", "value": 0.71, "unit": "µM"}
    ]},
    {"smiles": "CC(c1cnc(C(N)=O)c2ccccc12)N(C)C(=O)Nc1ccc(F)c(Cl)c1", "note": "(single isomer, unassigned) [Compound 328, 4-(1-(3-(3-Chloro-4-fluorophenyl)-1-methylureido)ethyl)isoquinoline-1-carboxamide]", "values": [
      {"measurement": "EC50", "setting": "HepDE19 assay", "value": 4.1, "unit": "µM"}
    ]},
    {"smiles": "CC(c1cnc(C(N)=O)c2ccccc12)N(C)C(=O)Nc1ccc(F)c(Cl)c1", "note": "(single isomer, unassigned) [Compound 329, 4-(1-(3-(3-Chloro-4-fluorophenyl)-1-methylureido)ethyl)isoquinoline-1-carboxamide]", "values": [
      {"measurement": "EC50", "setting": "HepDE19 assay", "value": 0.12, "unit": "µM"}
    ]},
    {"smiles": "CC(c1c[nH]c(=O)c2c(F)c(F)ccc12)N(C)C(=O)Nc1ccc(F)c(Cl)c1", "note": "(single isomer, unassigned) [Compound 330, 3-(3-Chloro-4-fluorophenyl)-1-(1-(7,8-difluoro-1-oxo-1,2-dihydroisoquinolin-4-yl)ethyl)-1-methylurea]", "values": [
      {"measurement": "EC50", "setting": "HepDE19 assay", "value": 0.99, "unit": "µM"}
    ]},
    {"smiles": "CC(c1c[nH]c(=O)c2c(F)c(F)ccc12)N(C)C(=O)Nc1ccc(F)c(Cl)c1", "note": "(single isomer, unassigned) [Compound 331, 3-(3-Chloro-4-fluorophenyl)-1-(1-(7,8-difluoro-1-oxo-1,2-dihydroisoquinolin-4-yl)ethyl)-1-methylurea]", "values": [
      {"measurement": "EC50", "setting": "HepDE19 assay", "value": 0.015, "unit": "µM"}
    ]},
    {"smiles": "CC(c1cn(C)c(=O)c2c(F)c(F)ccc12)N(C)C(=O)Nc1ccc(F)c(Cl)c1", "note": "(single isomer, unassigned) [Compound 332, 3-(3-Chloro-4-fluorophenyl)-1-(1-(7,8-difluoro-2-methyl-1-oxo-1,2-dihydroisoquinolin-4-yl)ethyl)-1-methylurea]", "values": [
      {"measurement": "EC50", "setting": "HepDE19 assay", "value": 3.7, "unit": "µM"}
    ]},
    {"smiles": "CC(c1cn(C)c(=O)c2c(F)c(F)ccc12)N(C)C(=O)Nc1ccc(F)c(Cl)c1", "note": "(single isomer, unassigned) [Compound 333, 3-(3-Chloro-4-fluorophenyl)-1-(1-(7,8-difluoro-2-methyl-1-oxo-1,2-dihydroisoquinolin-4-yl)ethyl)-1-methylurea]", "values": [
      {"measurement": "EC50", "setting": "HepDE19 assay", "value": 0.013, "unit": "µM"}
    ]},
    {"smiles": "CC(c1c[nH]c(=O)c2c(F)c(F)ccc12)N(CCCO)C(=O)Nc1ccc(F)c(Cl)c1", "note": "(single isomer, unassigned) [Compound 334, 3-(3-Chloro-4-fluorophenyl)-1-(1-(7,8-difluoro-1-oxo-1,2-dihydroisoquinolin-4-yl)ethyl)-1-(3-hydroxypropyl)urea]", "values": [
      {"measurement": "EC50", "setting": "HepDE19 assay", "value": 2, "unit": "µM"}
    ]}
  ]
}
